Calls of active or inactive are those of the source. No cut-off for these calls is given here.

Data set [1] can be described thus: Cell viability of mouse P19 derived neurons at 1 nM by XTT reduction assay relative to control. In kind it is functional. In general terms: Tetrazolium dyes change colour on reduction, which living cells bring about.
In another data set the test system is P19. Put plainly: Cytotoxicity against mouse P19 cells after 18 hrs. In kind it is functional, cell-based. The settings on record: P19, 18 h.
Data set [2] is described as follows: Neurotoxicity against mouse P19 derived neurons after 18 hrs. In kind it is toxicity.
A short description of data set [3]: Neuroprotective activity against paclitaxel-induced toxicity in mouse P19 derived neurons assessed as cell viability at 1 nM. The settings on record: read-out: Activity. In kind it is functional.
Data set [4] can be described thus: Therapeutic index, ratio of neurotoxic IC50 to neuroprotective activity for mouse P19 derived neurons.
Data set [5] is filed under the species Mus musculus. The experiment in a line: Neuroprotective activity against paclitaxel-induced toxicity in mouse P19 derived neurons assessed as cell viability at 1 nM after 18 hrs by phase contrast microscope. In kind it is functional.
The species entered for data set [6] is Mus musculus. Put plainly: Neuroprotective activity against vinblastine-induced toxicity in mouse P19 derived neurons assessed as cell viability at 1 nM after 18 hrs by phase contrast microscope. In kind it is functional.

For `CCNC1=C2C[C@@H](C)C[C@H](OC)[C@H](O)[C@@H](C)/C=C(\C)[C@H](OC(N)=O)[C@@H](OC)/C=C\C=C(/C)C(=O)NC(=CC1=O)C2=O`, the Activity in data set [1] turned out to be 49%.
By IC50 is commonly meant the midpoint of a concentration-inhibition curve. Read a high IC50 as weaker potency in that assay. Compound `CCCOC1=C2C[C@@H](C)C[C@H](OC)[C@H](O)[C@@H](C)/C=C(\C)[C@H](OC(N)=O)[C@@H](OC)/C=C\C=C(/C)C(=O)NC(=CC1=O)C2=O` displayed an Activity in data set [1] of 121%. Besides, the IC50 with P19 came out at 200 nM. In addition, the IC50 at 18 h in data set [2] was 6700 nM. The viability at 0.001 µM in data set [3] was 100%.
As for `CNC1=C2C[C@@H](C)C[C@H](OC)[C@H](O)[C@@H](C)/C=C(\C)[C@H](OC(N)=O)[C@@H](OC)/C=C\C=C(/C)C(=O)NC(=C(NC)C1=O)C2=O`, in data set [1], the Activity is 46%.
Still for that read-out and setting: next, `COC1=C2C[C@@H](C)C[C@H](OC)[C@H](O)[C@@H](C)/C=C(\C)[C@H](OC(N)=O)[C@@H](OC)/C=C\C=C(/C)C(=O)NC(=C(N)C1=O)C2=O`: 91%.
As to `COC1=C2C[C@@H](C)C[C@H](OC)[C@H](O)[C@@H](C)/C=C(\C)[C@H](OC(N)=O)[C@@H](OC)/C=C\C=C(/C)C(=O)NC(=CC1=O)C2=O` [GELDANAMYCIN], in data set [1], the Activity was 121%. For the same compound, in the data set on P19, it took 100 nM to reach half-maximal inhibition (IC50). The selectivity ratio in data set [4] was greater than 1800. Also, in data set [2], it took 1800 nM to reach half-maximal inhibition (IC50 at 18 h). Moreover, the viability at 0.001 µM in data set [3] stood at 100%.
For the compound `C=CCNC1=C2C[C@@H](C)C[C@H](OC)[C@H](O)[C@@H](C)/C=C(\C)[C@H](OC(N)=O)[C@@H](OC)/C=C\C=C(/C)C(=O)NC(=CC1=O)C2=O`, the Activity in data set [1] is 66%.
Still for that read-out and setting: to `CO[C@H]1/C=C\C=C(/C)C(=O)NC2=CC(=O)C(N)=C(C[C@@H](C)C[C@H](OC)[C@H](O)[C@@H](C)/C=C(\C)[C@@H]1OC(N)=O)C2=O` belongs 85%.
The same measure, in the same setting: to `CCCNC1=C2C[C@@H](C)C[C@H](OC)[C@H](O)[C@@H](C)/C=C(\C)[C@H](OC(N)=O)[C@@H](OC)/C=C\C=C(/C)C(=O)NC(=C(NCCC)C1=O)C2=O` belongs 0%; to `CO[C@H]1/C=C\C=C(/C)C(=O)Nc2cc(O)c(O)c(c2O)C[C@@H](C)C[C@H](OC)[C@H](O)[C@@H](C)/C=C(\C)[C@@H]1OC(N)=O`, 43%.
The same measure, in the same setting: next, `CO[C@H]1/C=C\C=C(/C)C(=O)NC2=C(NCCCO)C(=O)C(NCCCO)=C(C[C@@H](C)C[C@H](OC)[C@H](O)[C@@H](C)/C=C(\C)[C@@H]1OC(N)=O)C2=O`: 0%.
`CO[C@H]1/C=C\C=C(/C)C(=O)NC2=CC(=O)C(O)=C(C[C@@H](C)C[C@H](OC)[C@H](O)[C@@H](C)/C=C(\C)[C@@H]1OC(N)=O)C2=O`: the Activity in data set [1] stood at 50%.
Take `COC1=C2C[C@@H](C)C[C@H](OC)[C@H](O)[C@@H](C)/C=C(\C)[C@H](OC(N)=O)[C@@H](OC)/C=C\C=C(/C)C(=O)NC(=C(OC)C1=O)C2=O`: in data set [1], the Activity turned out to be 108%. The result in the data set listed under Mus musculus [5] and in the data set listed under Mus musculus [6] was Active. In the data set with P19, this compound registered an IC50 greater than 10000 nM. The selectivity ratio in data set [4] was greater than 10000. Also, in data set [2], the IC50 at 18 h was greater than 10000 nM. Besides, in data set [3], the viability at 0.001 µM stood at 120%.
On to `CO[C@H]1/C=C\C=C(/C)C(=O)NC2=CC(=O)C(NCc3ccccc3)=C(C[C@@H](C)C[C@H](OC)[C@H](O)[C@@H](C)/C=C(\C)[C@@H]1OC(N)=O)C2=O`, for which the Activity in data set [1] stood at 44%.
Same read-out and setting: next, `CCOC1=C2C[C@@H](C)C[C@H](OC)[C@H](O)[C@@H](C)/C=C(\C)[C@H](OC(N)=O)[C@@H](OC)/C=C\C=C(/C)C(=O)NC(=C(OCC)C1=O)C2=O`: 0%.
Compound `CO[C@H]1/C=C\C=C(/C)C(=O)NC2=CC(=O)C(OCc3ccccc3)=C(C[C@@H](C)C[C@H](OC)[C@H](O)[C@@H](C)/C=C(\C)[C@@H]1OC(N)=O)C2=O` came in with an Activity in data set [1] of 111%. In the data set on P19, the IC50 turned out to be 500 nM. Also, the IC50 at 18 h in data set [2] is greater than 10000 nM. For the same compound, in data set [3], the viability at 0.001 µM was determined as 100%.
Consider `CCOC1=C2C[C@@H](C)C[C@H](OC)[C@H](O)[C@@H](C)/C=C(\C)[C@H](OC(N)=O)[C@@H](OC)/C=C\C=C(/C)C(=O)NC(=CC1=O)C2=O`, for which, in data set [1], the Activity was 113%. The same compound had an IC50 in the data set on P19 of 100 nM. In data set [2], this compound yielded an IC50 at 18 h of 1600 nM. Also, the viability at 0.001 µM in data set [3] stood at 100%.
`CCCNC1=C2C[C@@H](C)C[C@H](OC)[C@H](O)[C@@H](C)/C=C(\C)[C@H](OC(N)=O)[C@@H](OC)/C=C\C=C(/C)C(=O)NC(=CC1=O)C2=O` registered an Activity in data set [1] of 0%.
